Data published in patent publication US6894052B1, “Diarylalkylpiperazines active on the lower urinary tract” (Recordati S.A. Chemical and Pharmaceutical Company, priority 1997, dated 2005).
Counter-ions that a name gives are not always drawn. Like-named read-outs stand apart in the source and are kept apart here.

Columns and labels:
[1] = molecular target: T1, human 5-HT1A serotonergic receptor (Homo sapiens, UniProt P08908); experiment: Radioreceptor binding to recombinant human 5-HT1A receptors ([3H]8-OH-DPAT, HeLa cell membranes)
T1 construct: expressed in transfected cells; host or cells: HeLa (human), stably transfected; cell membranes
T1 sequence (P08908 1-422): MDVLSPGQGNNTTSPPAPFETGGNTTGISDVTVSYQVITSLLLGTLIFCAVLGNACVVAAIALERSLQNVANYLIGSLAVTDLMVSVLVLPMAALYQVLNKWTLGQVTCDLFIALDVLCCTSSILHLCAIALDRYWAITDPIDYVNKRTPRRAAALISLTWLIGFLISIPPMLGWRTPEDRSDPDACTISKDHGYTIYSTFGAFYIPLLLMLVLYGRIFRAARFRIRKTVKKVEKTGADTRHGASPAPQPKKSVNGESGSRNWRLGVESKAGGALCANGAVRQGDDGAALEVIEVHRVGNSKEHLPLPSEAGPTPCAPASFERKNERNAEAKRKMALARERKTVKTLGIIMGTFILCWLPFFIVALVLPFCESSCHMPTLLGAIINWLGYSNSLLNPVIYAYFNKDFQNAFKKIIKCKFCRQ
Method: Genomic clone G-21 coding for the human 5-HT1A serotonergic receptor is stably transfected in a human cell line (HeLa). HeLa cells were grown as monolayers in Dulbecco's modified Eagle's medium (DMEM), supplemented with 10% fetal calf serum and gentamicin ([…]), 5% CO2 at 37° C. Cells were detached from the growth flask at 95% confluence by a cell scraper and were lysed in ice-cold 5 mM Tris and 5 mM EDTA buffer (pH 7.4). Homogenates were centrifuged at 40000×g×20 min and pellets were resuspended in a small volume of ice-cold 5 mM Tris and 5 mM EDTA buffer (pH 7.4) and immediately frozen and stored at −70° C. until use. On the day of experiment, cell membranes were resuspended in binding buffer: 50 mM Tris HCl (pH 7.4), 2.5 mM MgCl2, 10 μM pargyline (Fargin et al., Nature 335, 358-360, 1988). Membranes were incubated in a final volume of 1 ml for 30 min at 30° C. with 0.2-1 nM [^3H]8-OH-DPAT, in absence or presence of competing drugs; non-specific binding was determined in the presence of 10 μM 5-HT. The incubation was stopped by addition of ice-cold Tris-HCl buffer and rapid filtration through 0.2% polyethyleneimine-pretreated Whatman GF/B or Schleieher & Schuell GF52 filters.
(§1) The inhibition of specific binding of the radioligands by the tested drugs was analyzed to estimate the IC50 value by using the non-linear curve-fitting program Allfit (De Lean et al., Am. J. Physiol. 235, E97-E102, 1978). The IC50 value is converted to an affinity constant (Ki) by the equation of Cheng & Prusoff (Cheng, Y. C.; Prusoff, W. H. Biochem. Pharmacol. 22, 3099-3108, 1973).

[2] = molecular target: T2, 5-HT2A serotonergic receptors (Rattus norvegicus, UniProt P14842); experiment: Radioreceptor binding to native 5-HT2A serotonergic receptors ([3H]ketanserin, rat cerebral cortex membranes)
T2 construct: from tissue; host or cells: cerebral cortex of male Sprague Dawley rats, membranes
Method: Binding studies on native 5-HT2A serotonergic receptors (Craig A. and Kenneth J., Life Sci. 38, 117-127, 1986) were carried out in membranes of rat cerebral cortex. Male Sprague Dawley rats (200-300 g, S D Harlan/Nossan, Italy) were killed by cervical dislocation and cerebral cortexes were excised and immediately frozen in liquid nitrogen and stored at −70° C. until use. Tissues were homogenized (2×20 sec) in 50 volumes of cold 50 mM Tris-HCl buffer pH 7.4, using a Polytron homogenizer (speed 7). Homogenates were centrifuged at 49000×g for 10 min, resuspended in 50 volumes of the same buffer, incubated at 37° C. for 15 min and centrifuged and resuspended twice more. The final pellets were suspended in 100 volumes of 50 mM Tris-HCl buffer pH 7.7. Membranes were incubated in a final volume of 1 ml for 20 min at 37° C. with 0.7-1.3 nM [^3H]ketanserin (5-HT2A receptors), in absence or presence of competing drugs. Non-specific binding was determined in the presence of 2 μM ketanserin. The incubation was stopped by addition of ice-cold 50 mM Tris-HCl buffer and rapid filtration through 0.2% polyethyleneimine pretreated Whatman GF/B or Schleicher & Schuell GF52 filters. The filters are then washed with ice-cold buffer and the radioactivity retained on the filters was counted by liquid scintillation spectrometry.
as §1

α1 adrenergic receptors = experiment: Radioreceptor binding to native α1 adrenergic receptors ([3H]prazosin, rat cerebral cortex membranes)
Method: Binding studies on native α1 adrenergic receptors were carried out in membranes of rat cerebral cortex. Male Sprague Dawley rats (200-300 g, Charles River, Italy) were killed by cervical dislocation and cerebral cortexes were dissected and immediately frozen and stored at −70° C. until use. Tissue was homogenized (2×20 sec) in 50 volumes of cold 50 mM Tris-HCl buffer pH 7.4, using a Polytron homogenizer (speed 7). Homogenates were centrifuged at 48000×g for 10 min, resuspended in 50 volumes of the same buffer, incubated at 37° C. for 15 min and centrifuged and resuspended twice more. The final pellets were suspended in 100 volumes of 50 mM Tris-HCl buffer pH 7.4, containing 10 μM pargyline and 0.1% ascorbic acid. Membranes were incubated in a final volume of 1 ml for 30 min at 25° C. with 0.1-0.5 nM [^3H]prazosin, in the absence or presence of competing drugs; non-specific binding was determined in the presence of 10 μM phentolamine.
The incubation was stopped by addition of ice-cold 50 mM Tris-HCl buffer and rapid filtration through 0.2% polyethyleneimine-pretreated Whatman GF/B or Schleicher & Schuell GF52 filters. The filters were then washed with ice-cold buffer and the radioactivity retained on the filters counted by liquid scintillation spectrometry.
as §1

[3] = tested on: rhythmic bladder voiding contractions; experiment: Volume-induced rhythmic bladder voiding contractions in anaesthetized rats; format: in vivo, rat; conditions: for ED10min: extrapolated dose inducing 10 min of disappearance of the contractions; for ED50: Rattus norvegicus
Method: Female Sprague Dawley rats weighing 225-275 g (Crl: CDo BR, Charles River Italia) were used. The animals were housed with free access to food and water and were maintained on a forced 12 h alternating light-dark cycle at 22-24° C. for at least one week, except during the experiment. The activity on the rhythmic bladder voiding contractions was evaluated according to the method of Dray (J. Pharmacol. Methods, 13:157, 1985), with some modifications as in Guarneri (Pharmacol. Res., 27:173, 1993). Briefly, rats were anesthetized by subcutaneous injection of 1.25 g/kg (5 ml/kg) urethane, after which the urinary bladder was catheterized via the urethra using PE 50 polyethylene tubing filled with physiological saline. The catheter was tied in place with a ligature around the external urethral orifice and was connected with conventional pressure transducers (Statham P23 ID/P23 XL). […] The bladder was then filled via the recording catheter by incremental volumes of warm (37° C.) saline until reflex bladder voiding contractions occurred (usually 0.8-1.5 ml). For intravenous (i.v.) injection of bioactive compounds, PE 50 polyethylene tubing filled with physiological saline was inserted into the jugular vein.
From the cystometrogram, the number of contractions recorded 15 min before (basal values) and after treatment, as well as the mean amplitude of these contractions (mean height of the peaks in mm Hg) was evaluated.
Since most compounds produced an effect that was relatively rapid in onset and led to a complete cessation of bladder contractions, bioactivity was conveniently estimated by measuring the duration of bladder quiescence (i.e., the duration of time during which no contractions occurred). Moreover, the number of animals tested showing a reduction in the number of contractions >30% of that observed in the basal period, was recorded. […] Also computed in this manner were extrapolated doses which induced a reduction of the number of contractions of greater than 30% in 50% of treated rats (ED50, frequency) by the method of Bliss (Bliss C. I., Quart. J. Pharm. Pharmacol. 11, 192-216, 1938). After the suppressive effects of drug injection wore off, the height of the contractile peaks was compared with the height of the peaks previously recorded after the control intravenous administration of vehicle. The potency of the tested compounds (ED50 value, the extrapolated doses inducing a 30% reduction of amplitude of the contractions in 50% of treated rats) was evaluated on a quantal basis by the method of Bliss (Bliss C. I., Quart. J. Pharm. Pharmacol. 11, 192-216, 1938).

[4] = recombinant human receptor in HeLa membranes, [3H]8-OH-DPAT, read-out: Ki 5-HT1A
[5] = rat cerebral cortex membranes, [3H]ketanserin, read-out: Ki 5-HT2A
[6] = intravenous administration, anaesthetized rats
[7] = intravenous administration, anaesthetized rats, extrapolated dose inducing a reduction of the number of contractions >30% in 50% of treated rats, read-out: ED50 (frequency)
[8] = intravenous administration, anaesthetized rats, extrapolated dose inducing 30% reduction of amplitude of the contractions in 50% of treated rats, n.a. = not active, no significant reduction of the height of peaks, read-out: ED50 (amplitude)

T2 sequence (P14842 whole entry): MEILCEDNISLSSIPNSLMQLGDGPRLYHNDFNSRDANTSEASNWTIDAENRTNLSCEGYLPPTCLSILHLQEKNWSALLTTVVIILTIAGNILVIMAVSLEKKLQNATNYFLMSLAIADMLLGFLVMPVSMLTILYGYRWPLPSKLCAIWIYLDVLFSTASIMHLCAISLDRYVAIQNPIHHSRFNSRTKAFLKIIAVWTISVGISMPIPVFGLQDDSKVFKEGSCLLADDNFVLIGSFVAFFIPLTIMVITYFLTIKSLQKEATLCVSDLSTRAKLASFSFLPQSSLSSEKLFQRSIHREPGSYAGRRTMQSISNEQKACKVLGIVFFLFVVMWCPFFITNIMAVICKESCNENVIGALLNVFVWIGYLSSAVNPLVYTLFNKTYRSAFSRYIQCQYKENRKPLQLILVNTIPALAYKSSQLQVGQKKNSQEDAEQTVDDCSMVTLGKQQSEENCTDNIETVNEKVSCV

Row | Compound | Ki [1, 4] | Ki [2, 5] | Ki (α1 adrenergic receptors) | ED10min [3, 6] | ED50 [3, 7] | further results
1 | COc1ccccc1N1CCN(CCC(c2ccccc2)c2ccccc2)CC1 [Ex. 1, 1-(3,3-diphenylpropyl)-4-(2-methoxyphenyl)piperazine hydrochloride] | 3.9 nM | 320 nM | 145 nM |  |  | 
2 | c1ccc(C(CCN2CCN(c3cccc4c3OCCO4)CC2)c2ccccc2)cc1 [Ex. 2, 1-(3,3-diphenylpropyl)-4-[5-(2,3-dihydro-1,4-benzodioxinyl)]piperazine methanesulphonate] | 0.6 nM | 159 nM | 208 nM |  |  | 
3 | COc1ccccc1N1CCN(CCN(c2ccccn2)c2ccccn2)CC1.Cl [Ex. 5, 1-[N-N-bis-(2-pyridyl)-2-aminoethyl]-4-(2-methoxyphenyl)piperazine hydrochloride] |  |  |  | 523 µg/kg |  | ED50 (frequency) ([3]; intravenous administration, anaesthetized rats, extrapolated dose inducing a reduction of the number of contractions >30% in 50% of treated rats): 77 µg/kg
4 | COc1ccccc1N1CCN(CCC(C#N)(c2ccccn2)c2ccccn2)CC1 [Ex. 6, 1-[3-cyano-3,3-bis-(2-pyridyl)propyl]-4-(2-methoxyphenyl)piperazine] |  |  | 1250 nM | 225 µg/kg | 0.093 mg/kg | Ki [1]: 13.3 nM
5 | COc1ccccc1N1CCN(CCC(C#N)(c2ccccc2)c2ccccn2)CC1.Cl.Cl (stereo not drawn) [Ex. 7, 1-[3-cyano-3-phenyl-3-(2-pyridyl)propyl]-4-(2-methoxyphenyl)piperazine dihydrochloride] | 7.7 nM |  | 396 nM | 78 µg/kg |  | ED50 ([3]; iv, read-out: ED50 (frequency)): 0.018 mg/kg; Ki [2]: 140 nM
6 | COc1ccccc1N1CCN(CCC(c2ccccn2)c2ccccn2)CC1 [Ex. 8, 1-[3,3-bis-(2-pyridyl)propyl]-4-(2-methoxyphenyl)piperazine] | 3.97 nM | 320 nM | 191 nM | 74 µg/kg | 0.0025 mg/kg | 
7 | COc1ccccc1N1CCN(CCC(c2ccccc2)c2ccccn2)CC1 (stereo not drawn) [Ex. 9, 1-[3-phenyl-3-(2-pyridyl)propyl]-4-(2-methoxyphenyl)piperazine] | 0.62 nM | 1020 nM | 268 nM | 77 µg/kg | 0.025 mg/kg | 
8 | COc1ccccc1N1CCN(CCN(c2ccccn2)c2ccccc2[N+](=O)[O-])CC1 [Ex. 11, 1-[N-(2-nitrophenyl)-N-(2-pyridyl)-2-aminoethyl]-4-(2-methoxyphenyl)-piperazine] | 6.74 nM |  | 62.5 nM | 162 µg/kg | 0.024 mg/kg | 
9 | COc1ccccc1N1CCN(CCC(C#N)(c2ccccc2)c2ccccc2[N+](=O)[O-])CC1 (stereo not drawn) [Ex. 12, 1-[3-cyano-3-(2-nitrophenyl)-3-phenylpropyl]-4-(2-methoxyphenyl)piperazine] |  | 790 nM | 226 nM |  |  | Ki [1]: 1.45 nM
10 | COc1ccccc1N1CCN(CCC(C(N)=O)(c2ccccc2)c2ccccc2[N+](=O)[O-])CC1 (stereo not drawn) [Ex. 13, 1-[3-aminocarbonyl-3-(2-nitrophenyl)-3-phenylpropyl]-4-(2-methoxyphenyl)-piperazine] |  |  | 365 nM |  | 0.084 mg/kg | Ki [1]: 2.3 nM
11 | COc1ccccc1N1CCN(CCC(C(N)=O)(c2ccccn2)c2ccccc2[N+](=O)[O-])CC1 (stereo not drawn) [Ex. 17, 1-[3-aminocarbonyl-3-(2-nitrophenyl)-3-(2-pyridyl)propyl]-4-(2-methoxyphenyl)-piperazine] |  |  | 307 nM |  |  | Ki [1]: 5.18 nM
12 | Cc1c(-c2ccccc2)oc2c(C(=O)OCCN3CCCCC3)cccc2c1=O [Flavoxate, reference compound] |  |  |  |  |  | effect on the amplitude of the bladder contractions (in words) [3, 6]: did not affect the amplitude of the contractions; ED10min ([3]; intravenous administration, anaesthetized rats, in µg/kg): >10000
13 | CN(C)CCCN1c2ccccc2CCc2ccccc21 [Imipramine, reference compound] |  |  |  | > 6000 µg/kg | 4.93 mg/kg | ED50 [3, 8]: 2.93 mg/kg; effect on the amplitude of the bladder contractions (in words) [3, 6]: did not affect the amplitude of the contractions
14 | CCN(CC)CC#CCOC(=O)C(O)(c1ccccc1)C1CCCCC1 (stereo not drawn) [Oxybutynin, reference compound] |  |  |  | 7770 µg/kg | 10 mg/kg | ED50 [3, 8]: 0.24 mg/kg
